What was measured:
Settings in all cases: [3H]NMS, CHO-K1 cell membranes, mean ± S.E.M.
hM1 mAChR = biological target: T1, hM1 mAChR (Homo sapiens, UniProt P11229); experiment: [3H]NMS inhibition radioligand binding, hM1 in CHO-K1 cell membranes
T1 construct: expressed in transfected cells; host or cells: CHO-K1 (membrane preparation)
T1 sequence (P11229 1-460): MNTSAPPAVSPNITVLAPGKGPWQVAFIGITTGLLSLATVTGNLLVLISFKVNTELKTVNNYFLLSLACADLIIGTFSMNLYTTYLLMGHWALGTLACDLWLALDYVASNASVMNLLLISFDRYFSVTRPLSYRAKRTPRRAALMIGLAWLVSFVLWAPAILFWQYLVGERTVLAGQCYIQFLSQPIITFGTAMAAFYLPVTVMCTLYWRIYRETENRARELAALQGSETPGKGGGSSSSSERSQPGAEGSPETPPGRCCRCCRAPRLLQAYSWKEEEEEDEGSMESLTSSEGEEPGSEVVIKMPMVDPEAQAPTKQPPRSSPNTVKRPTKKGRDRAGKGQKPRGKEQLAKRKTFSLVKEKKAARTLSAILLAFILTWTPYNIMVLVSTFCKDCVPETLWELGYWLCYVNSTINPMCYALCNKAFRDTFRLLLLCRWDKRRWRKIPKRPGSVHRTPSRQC
Procedure: (§1) CHO-K1 cells stably transfected with the human muscarinic receptor subtypes (hM1–5) were grown in Dulbecco’s modified Eagle’s medium (DMEM) with nutrient mixture F12 (DMEM/F12, 50/50), containing 10% fetal bovine serum, penicillin (100 U/mL), streptomycin (100 U/mL), L-glutamine (4 mM), and geneticin (G-418, 50 μg/mL) at 37 °C in a 5% CO2 humidified incubator. […] Serum (0.7 mL) was added to inactivate the trypsin, and the cells were spun down by centrifuging at 300g for 5 min. The cells were then resuspended in ice-cold 25 mM sodium phosphate buffer containing 5 mM MgCl2, pH 7.4 (binding buffer) and homogenized using a cell disrupter (Ultra-Turrax, setting 3, 30 s). The homogenate was sedimented by centrifugation (17,000g, 15 min). The supernatant was discarded, and the resulting membrane pellets were resuspended with Ultra-Turrax in the same buffer to give a final protein concentration of 1–2 mg/mL. The protein content was determined by the method of Bradford (1976) with bovine serum albumin (Sigma) as a standard and stored at −80 °C.
(§2) Inhibition radioligand binding assays were conducted as previously described[48],[49] with 0.2 nM [^3H]NMS in binding buffer in a final volume of 250 μL. Nonspecific binding was defined in the presence of 10 μM atropine. Briefly, membrane fractions (about 25–70 μg/mL of protein) were incubated with radioligand and unlabeled test compounds for 2 h at r.t. Bound and free radioactivity were separated by filtering the assay mixture through UniFilter GF/B plates using a FilterMate Cell Harvester (PerkinElmer Life and Analytical Science). The filter bound radioactivity was counted by a TopCount NXT Microplate Scintillation Counter (PerkinElmer Life and Analytical Science). Data (cpm) were normalized to percentage-specific binding and analyzed using a four-parameter logistic equation in GraphPad Prism 5.02; IC50 values were determined, and Ki values were calculated.[59]

hM2 mAChR = biological target: T2, hM2 mAChR (Homo sapiens, UniProt P08172); experiment: [3H]NMS inhibition radioligand binding, hM2 in CHO-K1 cell membranes
T2 construct: expressed in transfected cells; host or cells: CHO-K1 (membrane preparation)
T2 sequence (P08172 1-466): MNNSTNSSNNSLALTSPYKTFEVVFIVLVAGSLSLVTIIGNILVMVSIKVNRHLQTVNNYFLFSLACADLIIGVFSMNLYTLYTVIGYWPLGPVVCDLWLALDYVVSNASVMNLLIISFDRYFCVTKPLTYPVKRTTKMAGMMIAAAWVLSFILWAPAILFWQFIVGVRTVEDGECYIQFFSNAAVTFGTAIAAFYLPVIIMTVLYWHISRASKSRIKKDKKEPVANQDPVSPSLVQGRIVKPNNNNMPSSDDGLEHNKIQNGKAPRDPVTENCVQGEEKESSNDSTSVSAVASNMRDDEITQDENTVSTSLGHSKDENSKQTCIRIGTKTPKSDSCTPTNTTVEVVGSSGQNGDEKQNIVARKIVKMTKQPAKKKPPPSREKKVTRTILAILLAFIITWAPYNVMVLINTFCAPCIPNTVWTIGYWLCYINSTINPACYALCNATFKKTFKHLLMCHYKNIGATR
Procedure: as §1, §2

hM3 mAChR = biological target: T3, hM3 mAChR (Homo sapiens, UniProt P20309); experiment: [3H]NMS inhibition radioligand binding, hM3 in CHO-K1 cell membranes
T3 construct: expressed in transfected cells; host or cells: CHO-K1 (membrane preparation)
Procedure: as §1, §2

hM4 mAChR = biological target: T4, hM4 mAChR (Homo sapiens, UniProt P08173); experiment: [3H]NMS inhibition radioligand binding, hM4 in CHO-K1 cell membranes
T4 construct: expressed in transfected cells; host or cells: CHO-K1 (membrane preparation)
T4 sequence (P08173 1-479): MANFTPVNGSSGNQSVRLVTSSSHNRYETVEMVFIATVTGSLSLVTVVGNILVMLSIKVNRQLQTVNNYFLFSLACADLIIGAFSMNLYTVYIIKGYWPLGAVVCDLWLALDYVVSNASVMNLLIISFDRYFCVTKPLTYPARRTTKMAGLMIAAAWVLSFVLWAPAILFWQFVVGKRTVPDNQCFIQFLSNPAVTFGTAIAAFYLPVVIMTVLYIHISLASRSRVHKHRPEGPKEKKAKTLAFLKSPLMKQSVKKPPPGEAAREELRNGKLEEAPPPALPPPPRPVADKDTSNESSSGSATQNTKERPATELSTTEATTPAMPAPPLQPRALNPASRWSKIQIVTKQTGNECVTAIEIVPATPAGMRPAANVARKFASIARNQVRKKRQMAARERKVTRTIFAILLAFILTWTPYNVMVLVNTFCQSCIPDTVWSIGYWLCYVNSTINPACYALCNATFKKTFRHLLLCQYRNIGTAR
Procedure: as §1, §2

hM5 mAChR = biological target: T5, hM5 mAChR (Homo sapiens, UniProt P08912); experiment: [3H]NMS inhibition radioligand binding, hM5 in CHO-K1 cell membranes
T5 construct: expressed in transfected cells; host or cells: CHO-K1 (membrane preparation)
T5 sequence (P08912 1-532): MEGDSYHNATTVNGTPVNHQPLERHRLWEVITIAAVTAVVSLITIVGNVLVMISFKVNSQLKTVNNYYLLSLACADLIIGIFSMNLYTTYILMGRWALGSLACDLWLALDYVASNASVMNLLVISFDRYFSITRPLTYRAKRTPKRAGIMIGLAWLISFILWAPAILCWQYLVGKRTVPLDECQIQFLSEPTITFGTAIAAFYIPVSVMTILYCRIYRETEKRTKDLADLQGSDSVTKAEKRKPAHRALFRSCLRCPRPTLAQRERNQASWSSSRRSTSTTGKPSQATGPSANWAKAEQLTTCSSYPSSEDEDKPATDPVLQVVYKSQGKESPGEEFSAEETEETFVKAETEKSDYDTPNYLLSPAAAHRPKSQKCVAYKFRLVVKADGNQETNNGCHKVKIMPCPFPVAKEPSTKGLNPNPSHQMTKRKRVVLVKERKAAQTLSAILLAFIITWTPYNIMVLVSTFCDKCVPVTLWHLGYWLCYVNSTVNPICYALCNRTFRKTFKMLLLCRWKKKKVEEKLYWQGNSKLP
Procedure: as §1, §2

T3 sequence (P20309 whole entry): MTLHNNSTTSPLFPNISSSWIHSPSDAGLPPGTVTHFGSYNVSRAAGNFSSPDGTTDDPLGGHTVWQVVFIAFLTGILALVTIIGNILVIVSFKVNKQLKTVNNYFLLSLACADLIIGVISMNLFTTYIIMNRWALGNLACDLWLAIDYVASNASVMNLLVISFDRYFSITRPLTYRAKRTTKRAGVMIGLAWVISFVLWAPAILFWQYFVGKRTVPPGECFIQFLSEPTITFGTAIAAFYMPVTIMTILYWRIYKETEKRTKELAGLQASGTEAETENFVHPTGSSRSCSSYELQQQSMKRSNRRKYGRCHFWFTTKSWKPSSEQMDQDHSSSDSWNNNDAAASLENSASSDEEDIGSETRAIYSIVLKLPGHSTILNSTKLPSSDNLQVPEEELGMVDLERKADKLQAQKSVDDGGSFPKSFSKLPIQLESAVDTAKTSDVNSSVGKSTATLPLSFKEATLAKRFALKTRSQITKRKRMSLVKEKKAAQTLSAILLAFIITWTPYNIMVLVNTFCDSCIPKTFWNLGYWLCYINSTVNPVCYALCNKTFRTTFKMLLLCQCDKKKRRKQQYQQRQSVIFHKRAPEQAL

SMILES | pKi hM1 (hM1 mAChR) | pKi hM2 (hM2 mAChR) | pKi hM3 (hM3 mAChR) | pKi hM4 (hM4 mAChR) | pKi hM5 (hM5 mAChR) | Ki (hM1 mAChR; read-out: pKi hM1 (converted)) [µM] | Ki (hM2 mAChR; read-out: pKi hM2 (converted)) [µM] | Ki (hM3 mAChR; read-out: pKi hM3 (converted)) [µM] | Ki (hM4 mAChR; read-out: pKi hM4 (converted)) [µM] | Ki (hM5 mAChR; read-out: pKi hM5 (converted)) [µM]
C[N+](C)(C)C[C@@H]1COC[C@](c2ccccc2)(C2CCCCC2)O1 [(2R,6R)-(+)-3b, 1-((2R,6R)-6-Cyclohexyl-6-phenyl-1,4-dioxan-2-yl)-N,N,N-trimethylmethanaminium Iodide] | 8.30 ± 0.25 | 7.86 ± 0.14 | 7.51 ± 0.12 | 7.45 ± 0.11 | 7.68 ± 0.35 | – | – | – | – | –
C[N+](C)(C)C[C@@H]1CO[C@H](c2ccc(-c3ccccc3)cc2)CO1.[I-] (relative stereo) [13a, 1-((2R*,5R*)-5-([1,1′-Biphenyl]-4-yl)-1,4-dioxan-2-yl)-N,N,N-trimethylmethanaminium Iodide] | <5 | <5 | <5 | <5 | <5 | – | – | – | – | –
C[N+](C)(C)C[C@@H]1CO[C@H](c2ccc(Sc3ccccc3)cc2)CO1.[I-] (relative stereo) [15a, 1-((2R*,5R*)-5-(4-(Phenylthio)phenyl)-1,4-dioxan-2-yl)-N,N,N-trimethylmethanaminium Iodide] | 5.43 ± 0.09 | 6.70 ± 0.13 | 6.01 ± 0.11 | 5.70 ± 0.01 | 6.00 ± 0.14 | – | – | – | – | –
C[N+](C)(C)C[C@@H]1CO[C@@H](c2ccc(Cc3ccccc3)cc2)CO1.[I-] (relative stereo) [14b, 1-((2R*,5S*)-5-(4-Benzylphenyl)-1,4-dioxan-2-yl)-N,N,N-trimethylmethanaminium Iodide] | <5 | <5 | <5 | <5 | <5 | – | – | – | – | –
C[N+](C)(C)C[C@@H]1CO[C@@H](c2ccccc2)[C@@H](c2ccccc2)O1.[I-] (relative stereo) [18c, 1-((2R*,5S*,6R*)-5,6-Diphenyl-1,4-dioxan-2-yl)-N,N,N-trimethylmethanaminium Iodide] | 7.19 ± 0.07 | 6.62 ± 0.08 | 6.45 ± 0.01 | 6.40 ± 0.06 | 6.21 ± 0.01 | – | – | – | – | –
C[N+](C)(C)C[C@@H]1COC[C@H](c2ccc(Sc3ccccc3)cc2)O1.[I-] (relative stereo) [6a, 1-((2R*,6S*)-6-(4-(Phenylthio)phenyl)-1,4-dioxan-2-yl)-N,N,N-trimethylmethanaminium Iodide] | 5.50 ± 0.05 | 5.47 ± 0.07 | <5 | 5.43 ± 0.05 | 5.58 ± 0.13 | – | – | – | – | –
C[N+](C)(C)C[C@@H]1CO[C@@H](c2ccc(S(=O)(=O)c3ccccc3)cc2)CO1.[I-] (relative stereo) [17b, 1-((2R*,5S*)-5-(4-(Phenylsulfonyl)phenyl)-1,4-dioxan-2-yl)-N,N,N-trimethylmethanaminium Iodide] | <5 | <5 | <5 | <5 | <5 | – | – | – | – | –
C[N+](C)(C)C[C@@H]1CO[C@H](c2ccc(Cc3ccccc3)cc2)CO1.[I-] (relative stereo) [14a, 1-((2R*,5R*)-5-(4-Benzylphenyl)-1,4-dioxan-2-yl)-N,N,N-trimethylmethanaminium Iodide] | <5 | 5.65 ± 0.05 | 5.65 ± 0.12 | <5 | 5.53 ± 0.13 | – | – | – | – | –
C[N+](C)(C)C[C@@H]1CO[C@](c2ccccc2)(C2CCCCC2)CO1.[I-] (relative stereo) [11b, 1-((2R*,5S*)-5-Cyclohexyl-5-phenyl-1,4-dioxan-2-yl)-N,N,N-trimethylmethanaminium Iodide] | 7.81 ± 0.04 | 7.22 ± 0.11 | 7.36 ± 0.10 | 7.23 ± 0.10 | 7.32 ± 0.09 | – | – | – | – | –
C[N+](C)(C)CC1COCC(c2ccc(Cc3ccccc3)cc2)O1 (mixture of isomers) [5a/b, 1-((2R*,6S*)-6-(4-Benzylphenyl)-1,4-dioxan-2-yl)-N,N,N-trimethylmethanaminium Iodide and 1-((2R*,6R*)-6-(4-Benzylphenyl)-1,4-dioxan-2-yl)-N,N,N-trimethylmethanaminium Iodide] | – | – | – | – | – | > 10 | 4.9 | > 10 | > 10 | 7.41
C[N+](C)(C)C[C@@H]1COC[C@H](c2ccc(S(=O)(=O)c3ccccc3)cc2)O1.[I-] (relative stereo) [8a, 1-((2R*,6S*)-6-(4-(Phenylsulfonyl)phenyl)-1,4-dioxan-2-yl)-N,N,N-trimethylmethanaminium Iodide] | 5.08 ± 0.09 | 5.13 ± 0.01 | <5 | <5 | 5.21 ± 0.14 | – | – | – | – | –
C[N+](C)(C)C[C@@H]1COC[C@@H](c2ccc(-c3ccccc3)cc2)O1.[I-] (relative stereo) [4b, 1-((2R*,6R*)-6-([1,1′-Biphenyl]-4-yl)-1,4-dioxan-2-yl)-N,N,N-trimethylmethanaminium Iodide] | <5 | 5.27 ± 0.12 | <5 | <5 | <5 | – | – | – | – | –

Reference: paper PMC8007111, “Novel Potent Muscarinic Receptor Antagonists: Investigation on the Nature of Lipophilic Substituents in the 5- and/or 6-Positions of the 1,4-Dioxane Nucleus” (Journal of Medicinal Chemistry, 2020)
